Experimental data published in patent publication US6541463B1, “Inhibitors of type 5 and type 3 17β-hydroxysteroid dehydrogenase and methods for their use” (Endorecherche, Inc., priority 1998, dated 2003).

Legend:
[1] = test system: ZR-75-1 cells; experiment: Estrogenic activity: stimulation of proliferation of ZR-75-1 cells; type: cell-based, human; conditions: for ZR-75-1 Activity, Basal E^−6 / ZR-75-1 Activity, Basal E^−8: Table 4′
Procedure: […] The manner in which the stimulation is determined is described in “Other Tests; C-Estrogenic/Antiestrogenic activity” Lower numbers are desirable. ND means that a determination was not done.
(§1) Estrogenic/antiestrogenic activity of some preferred compounds has been measured using the […] human breast cancer cell line as described in more detail below.
(§2) All media and medium supplments were purchased from Sigma. Cells were subcultured weekly by treatment with a pancreatic solution containing EDTA (0.2 g/L). The cell cultures used for the experiments herein describied were between passages 89 and 94.
(§3) Cells in their logarithmic growth phase were harvested, briefly centrifuged, and resuspended in RPMI 1640. Cells were then plated in triplicate in LIMBRO 24-well plastic culture plates (2 cm^2/well). Since plating density influences the effect of hormones on ZR-75-1 cell growth, cells were plated at a density of 1×10^4 cells/well. […] Control cultures received the ethanol vehicle only. Cells were then allowed to grow at 37° C. for 10 days with medium changes (of identical composition) every 2 days.
(§4) After E2 and/or antiestrogen treatment, cells were harvested by addition of 0.5 ml of a pancreatin solution (Sigma) for 5-10 min at 37° C. before addition of 0.5 mnl of RPMI 1640 containing 5% dextran coated […] bovine serum in order to block enzymatic action. Cell number (0.10 ml aliquot) was determined by measurement of DNA content as previously described (Simard et al., Endocrinology 126: 3223-3231,1990).

[2] = test system: ZR-75-1 cells; experiment: Antiestrogenic activity: inhibition of E2-induced proliferation of ZR-75-1 cells; type: cell-based, human; design: ZR-75-1 Activity, E2 / ZR-75-1 Activity E2 E^−6: unit not given here; conditions: for ZR-75-1 Activity, E2 3E^−8: Table 4′, E2-induced proliferation
Procedure: The manner in which the inhibition is determined is described in “Other Tests; C-Estrogenic/Antiestrogenic Activity”. Lower numbers are desirable. ND means that a determination was not done.
as §1, §2, §3, §4

[3] = target: T1, human type 2 17β-hydroxysteroid dehydrogenase (Homo sapiens, UniProt P37059); experiment: Enzymatic assay for type 2 17β-HSD; type: biochemical; conditions: for inhibition: read-out: Inhibition Type 2 17β-HSD Activity [% Inh. at 3 · 10^−8M]; for IC50: read-out: Inhibition Type 2 17β-HSD Activity IC50
T1 construct: expressed in transfected cells; host or cells: 293 cells, transient transfection; microsomal fraction (100 000×g pellet)
T1 sequence (P37059 1-387): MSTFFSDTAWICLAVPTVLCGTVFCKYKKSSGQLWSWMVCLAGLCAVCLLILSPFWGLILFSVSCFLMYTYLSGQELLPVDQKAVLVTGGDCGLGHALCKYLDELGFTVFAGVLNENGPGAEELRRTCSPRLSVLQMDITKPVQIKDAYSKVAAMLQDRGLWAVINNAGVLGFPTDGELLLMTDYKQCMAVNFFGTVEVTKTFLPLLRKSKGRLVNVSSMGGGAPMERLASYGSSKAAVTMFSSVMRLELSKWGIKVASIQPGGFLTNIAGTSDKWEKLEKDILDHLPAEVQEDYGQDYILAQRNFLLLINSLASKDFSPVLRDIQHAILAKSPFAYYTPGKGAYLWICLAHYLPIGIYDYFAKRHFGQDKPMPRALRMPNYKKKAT
Procedure: The manner in which IC50 was determined is described in “Efficacy of Preferred Inhibitors: VI. Enzymatic assay for types 1, 2, and 3 17β-HSD and types 1 and 3 3α-HSD”. […] numbers of IC50 are desirable. Blank means that a determination was not done. […]
Enzyme sources. 293 cells transiently transfected with expression vectors encoding types 1, 2 and 3 17β-HSD (Luu-The et al., J. Steroid Biochem. Molec. Biol., 55: 581-587, 1995), types 1 and 2 5α-reductase (Luu-The et al., J. Invest. Dermatol., 102: 221-226, 1994) and types 1 and 3 3α-HSD (Dufort et al. Biochem. Biophys. Res. Commun. 228: 474-479, 1996), using the calcium phosphate procedure (Kingston et al., In: Current Protocols in Molecular Biology. Edited by E. M. Ausbel, R. Brent, R. E. Kingston, D. D. Moore, J. G. Seidman, J. A. Smith, K. Struhl. John Wiley & Sons, New York, pp. 9.1.1-9.1.9, 1991; Luu-The et al., J. Invest. Dermatol., 102: 221-226, 1994). For assays using cell subfractions, cells were sonicated in 50 mM sodium phosphate buffer (pH 7.4), containing 20% glycerol and 1 mM EDTA and centrifuged at 10 000×g for 30 min before centrifugation for 100 000×g for 1 h to separate the mitochondrial and microsomal fractions, respectively. The cytosol fractions (100 000×g supernatant) was used to determine type 1 activity while the microsomal fraction (pellet at 100 000×g) was used for measurement of types 2 and 3 17β-HSD activities.
Incubation. The enzymatic reaction was carried out at 37° C. in 1 ml of 50 mM sodium phosphate buffer, pH 7.4, containing 20% glycerol, 1 mM EDTA, and 2 mM cofactors (NADPH or AND^+) for 1 h in the presence of 0.1 μM ^14C-labeled substrate: estrone and 4-dione for types 1 and […] 17β-HSD, respectively, testosterone for type 2 17β-HSD as well as types 1 and 2 5α-reductases, DHT for types 1 and 3 3α-HSD activities, and the indicated concentration of inhibitor.
Extraction of metabolites, migration on TLC and quantification were as described above for the assay of type 5 17β-HSD.

[4] = Table 4′, bracketed values, 3 · 10^−8M

## CC1(C)CCC2(CCC3C4CCc5ccccc5C4CCC32C)OC1=O (stereo not drawn) [CS-224]
[1]
  ZR-75-1 Activity, Basal E^−6: 128%
  ZR-75-1 Activity, Basal E^−8: 16%
[2]
  ZR-75-1 Activity, E2 3E^−8: 13%

## CCC(=O)O[C@]1(C(C)=O)CCC2C3C=C(C)C4=CC(=O)C[C@H](C)[C@]4(C)C3CC[C@@]21C (stereo partly drawn) [CS-243]
[1]; E^−6, in %
  ZR-75-1 Activity, Basal: 0
[1]; E^−8, in %
  ZR-75-1 Activity, Basal: 0
[2]; E2
  ZR-75-1 Activity, E2: −57
[2]; E2, E^−8
  ZR-75-1 Activity, E2: −60

## C[C@]12CCC3c4ccc(O)cc4CCC3C1CC[C@@]21CCCC(=O)O1 (stereo partly drawn) [EM-919, 1,3,5(10)-estratrien-3-ol-17(R)-spiro-2′(6′-oxo)tetrahydropyran]
[1]
  ZR-75-1 Activity, Basal E^−6: −20%
  ZR-75-1 Activity, Basal E^−8: 0%
[3]; [4]
  inhibition: 86%
[2]
  ZR-75-1 Activity, E2 3E^−8: −18%

## COC(=O)CCCC(=O)O[C@]1(C(C)=O)CC[C@H]2[C@@H]3C=C(C)C4=CC(=O)CC[C@]4(C)[C@H]3CC[C@@]21C [EM-1007, 6-Methyl-4,6-pregnadien-17α-ol-3,20-dione 4′-Carbomethoxybutyrate]
[1]; E^−6, in %
  ZR-75-1 Activity, Basal: 0
[1]; E^−8, in %
  ZR-75-1 Activity, Basal: −8
[2]; E2
  ZR-75-1 Activity, E2: −52
[2]; E2, E^−8
  ZR-75-1 Activity, E2: −41

## CC1CCC2(CCC3C4CCc5ccccc5C4CCC32C)OC1=O (stereo not drawn) [EM-1025]
[1]
  ZR-75-1 Activity, Basal E^−6: 201%
  ZR-75-1 Activity, Basal E^−8: 20%
[3]; [4]
  inhibition: 64%
[2]
  ZR-75-1 Activity, E2 3E^−8: 0%

## CN1C(=O)C=C[C@]2(C)C3CC[C@@]4(C)C(CC[C@@]45CCCC(=O)O5)C3CCC12 (stereo partly drawn) [EM-1122-CS]
[3]; Table 5 column 5, bracketed values, 3.10^−5 M
  Inhibition Type 2 17β-HSD Activity [% Inh. at 3.10^−5 M]: [90] %

## C[C@]12CCC3c4cc([N+](=O)[O-])c(O)cc4CCC3C1CC[C@@]21CCCC(=O)O1 (stereo partly drawn) [EM-1124, 2-Nitro-1,3,5(10)-estraetriene-3-ol-17(R)-spiro-2′-(6′-oxo)tetrahydropyran]
[1]
  ZR-75-1 Activity, Basal E^−6: 12%
  ZR-75-1 Activity, Basal E^−8: 0%
[2]
  ZR-75-1 Activity, E2 3E^−8: 0%

## CC1(C)CCC2(CCC3C4CCc5cc(O)c([N+](=O)[O-])cc5C4CCC32C)OC1=O (stereo not drawn) [EM-1125-CS]
[1]
  ZR-75-1 Activity, Basal E^−6: 34%
  ZR-75-1 Activity, Basal E^−8: 10%
[2]
  ZR-75-1 Activity, E2 3E^−8: 0%

## CC12CCC3c4ccc(F)cc4CCC3C1CCC21CCCC(=O)O1 (stereo not drawn) [EM-1170-CS]
[3]; [4]
  inhibition: 84%

## COc1ccc(CC(=O)O[C@]2(C(C)=O)CCC3C4C=C(C)C5=CC(=O)C=C[C@]5(C)C4CC[C@@]32C)cc1 (stereo partly drawn) [EM-1291]
[3]; at 3.10^-8M
  Inhibition Type 2 17β-HSD Activity [% Inh.]: [67] %

## CC1(C)CC[C@@]2(CC[C@H]3[C@@H]4CCc5c(cc(Br)c(O)c5Br)[C@H]4CC[C@@]32C)OC1=O [EM-1382-CS]
[3]; [4]
  Inhibition Type 2 17β-HSD Activity [% Inh. at 3 · 10^−8M]: [70] %

## COc1c(Br)cc2c(c1Br)CCC1C2CCC2(C)C1CCC21CCC(C)(C)C(=O)O1 (stereo not drawn) [EM-1385-CS]
[3]; Table 4′
  IC50: > 10 µM

## CN(C)CCOc1ccc2c(c1)CCC1C2CCC2(C)C1CCC21CCC(C)(C)C(=O)O1 (stereo not drawn) [EM-1389-CS]
[3]; Table 4′
  IC50: > 10 µM

## CC1(C)CCC2(CCC3C4CCc5cc(OCCN6CCCCC6)ccc5C4CCC32C)OC1=O [EM-1390-CS, 3-(N-piperidyl-ethyl)-1,3,5(10)-estratrien-17(R)-spiro-2′-(5′,5′-dimethyl-6′-oxo)-tetrahydropyran]
[3]; Table 4′
  IC50: > 10 µM

## CC1(C)CCC2(CCC3C4CCc5c(cc(Cl)c(O)c5Cl)C4CCC32C)OC1=O (stereo not drawn) [EM-1391-CS]
[3]; Table 4′
  IC50: > 10 µM
